Test results published in patent US10512700B2, “Radiohalide-labeled targeted diagnostics and therapeutics” (Memorial Sloan Kettering Cancer Center, priority 2014, dated 2019).
Where “and” joins values, the source holds several entries; their conditions need not be identical. Equal values may be shown once.

Key:
Format in all cases: in vivo, mouse
Blood half-life = conditions: healthy athymic nude mice, tail vein
Experimental: The blood half-life was determined by measuring the activity in serial blood samplings. […] Measurements in counts per minute were calculated as the mean % ID/g. The blood half-life was calculated using Prism 6.0c (GraphPad Software, La Jolla, Calif.).
The blood half-life was calculated by measuring the activity of blood samples collected at different time points p.i. […] The collected blood was weighed and counted in a WIZARD^2 automatic γ-counter (PerkinElmer, Boston, Mass.). The blood half-life was calculated using Prism 6.0c (GraphPad Software, La Jolla, Calif.) using a two-phase decay least squares fitting method and expressed as % ID/g.

[1] = test system: U251 MG tumor bearing mice; test: Biodistribution; conditions: C-2d, i.v., 2 h post injection
Experimental: Biodistribution studies were conducted on female nude mice (8-10 weeks old and 20-25 g in weight, n=21) bearing U251 MG subcutaneous xenografts. The radiolabeled preparation (20-30 μCi of compound C-2d (^131I) in 200 μL of a solution 90% PBS 10% PEG300) was administrated via the lateral tail vein. The compound was allowed to circulate for 2 h post injection at which time mice were sacrificed and organs were harvested (n=3). The radioactive content in tissue of interest (blood, tumor, muscle, bone, liver, spleen, kidney, heart, lung, pancreas, brain, skin, small intestine, large intestine, stomach, tail, thyroid and feces) was measured on a Wizard 2470 Automatic Gamma Counter, and the tissue-associated activity was calculated as the mean % ID/g using the following formula: [(activity in the target organ/grams of tissue)/injected dose]×100%.
Biodistribution studies were performed in subcutaneous U251 MG xenograft bearing athymic nude mice (n=12). Mice were divided in two groups (blocked and unblocked) and administered with C-2f (approximately 50 μCi, 45 mCi/μmol in […], 10% EtOH in 0.9% sterile saline) via tail vein injection. […] Mice were sacrificed by CO2 asphyxiation at 120 min post injection and major organs were collected, weighed, and counted in a WIZARD^2 automatic γ-counter (PerkinElmer, Boston, Mass.). The radiopharmaceutical uptake was expressed as a percentage of injected dose per gram (% ID/g) using the following formula: [(activity in the target organ/grams of tissue)/injected dose]×100%.

[2] = test system: orthotopic U251 MG tumor-bearing mice; test: Autoradiography using C-2d
Experimental: U251 MG glioblastoma cells (5×10^4 in 2 μL of PBS) were orthotopically implanted in athymic nude mice, using a stereotaxic device, and the tumors allowed to grow for approximately 4 weeks. […] Additionally, healthy mice were also injected with 500 μCi C-2d. After 2 h of circulation time after the C-2d injection, the mice were sacrificed. Liver, tumor, muscle, and brain tissues were excised and embedded in O.C.T. compound (Sakura Finetek, Torrance, Calif.) and frozen at −20° C., and a series of 8 μm frozen sections was cut and mounted on microscope slides. To determine radiotracer distribution, digital autoradiography was performed by placing tissue sections in a film cassette against a phosphor image plate (BASMS-2325; Fujifilm) for 48 h at −20° C. Phosphor imaging plates were read at a pixel resolution of 25 μm with a Typhoon 7000IP plate reader (GE Healthcare, Piscataway, N.J.) (images not shown). After autoradiographic exposure, the same frozen sections were then used for […] staining. Areas of brain slides containing tumor tissue were identified using the H&E staining and then overlaid with the autoradiographic data (images not shown). Intensity of tumor areas and non-tumor areas were then quantified using ImageJ 1.47 u (see FIGS. 5A and 5B).

[3] = autoradiography, mice that received no olaparib

O=C(c1ccc([131I])cc1)N1CCN(C(=O)c2cc(Cc3n[nH]c(=O)c4ccccc34)ccc2F)CC1 [C-2d (^131I)]
alpha blood half-life (Blood half-life): 14.3 min | alpha blood half-life, share of phase (Blood half-life): 96.25% | beta blood half-life (Blood half-life): 94.6 min | beta blood half-life, share of phase (Blood half-life): 3.75% | weighted blood half-life (Blood half-life; 50 μCi): 17.1 min | % ID/g, Blood [1]: 0.27 % ID/g | % ID/g, Bone [1]: 0.07 % ID/g | % ID/g, Brain [1]: 0.011±0.003 % ID/g and 0.01 % ID/g | % ID/g, Feces [1]: 4.34 % ID/g | % ID/g, Heart [1]: 0.16 % ID/g | % ID/g, Kidneys [1]: 0.61 % ID/g | % ID/g, Large intestine [1]: 1.26 % ID/g | % ID/g, Liver [1]: 2.34 % ID/g | % ID/g, Lung [1]: 0.28 % ID/g | % ID/g, Muscle [1]: 0.03±0.01 % ID/g and 0.03 % ID/g | % ID/g, Pancreas [1]: 0.15 % ID/g | % ID/g, Skin [1]: 0.25 % ID/g | % ID/g, Small intestine [1]: 11.70 % ID/g | % ID/g, Spleen [1]: 0.40 % ID/g | % ID/g, Stomach [1]: 0.88 % ID/g | % ID/g, Tail [1]: 0.60 % ID/g | % ID/g, Thyroid [1]: 0.24 % ID/g | % ID/g, Tumor [1]: 0.43±0.06 % ID/g and 0.43 % ID/g | signal intensity in tumor tissue vs healthy brain tissue [2, 3]: 15.7 fold | signal intensity in tumor tissue vs muscle tissue [2, 3]: 6.2 fold | reduction in intensity of the autoradiography signal in tumor tissue ([2]; mice treated with olaparib): 65% | autoradiography signal, muscle ([2]; with olaparib treatment): 248±72 AU | autoradiography signal, tumor tissue ([2]; with olaparib treatment): 536±87 AU | autoradiography signal, muscle ([2]; without olaparib treatment): 192±20 AU | autoradiography signal, tumor tissue ([2]; without olaparib treatment): 1222±203 AU
